# In patent US20090294381A1, “METHODS FOR CONTROLLING PH IN WATER SANITIZED BY CHEMICAL OR ELECTROLYTIC CHLORINATION” (ZODIAC POOL CARE, INC., priority 2005, published 2009):
# Like-named read-outs stand apart in the source and are kept apart here.
# Assays:
# [1] = cited from earlier work
# [2] = system: Chlorella vulgaris; assay: Algae growth in nutrient medium, serial dilution tubes, visual bottom pellicle formation; assay type: cell-based; design: key: +++ indicates good growth; ++ indicates scant growth; + indicates very low growth; − indicates no growth
# Protocol: An algae nutrient medium was prepared by mixing the following with 940 mL deionized (DI) water:
# Primary stocks were made by including each of the test compounds in the table below in DI as 100 mL aliquots of 1000 ppm solutions. Working stocks in algae media were made as 128 ppm solutions (13 mL/100 mL DI). These solutions were serially diluted and placed into disposable borosilicate tubes, each containing 5 mL of algae medium. The highest theoretical concentration of each compound tested was 64 ppm; as a result of the serial dilution, concentrations of 32, 16, 8, 4, 2, 1, 0.5, and 0.25 ppm were tested. Each tube as inoculated with 50 μL of 10-12 day old Chlorella vulgaris, having an approximate density of 3.0×10^5 cells/mL. Growth was evaluated in a semi-quantitative fashion by visually observing bottom pellicle formation, which was compared to 2 controls. In the table below, +++ indicates good growth, ++ indicates scant growth, + indicates very low growth, and − indicates no growth.
# [3] = Phosphate removal in full sized swimming pools via Nature2 G cartridge; conditions: Example 6: 7 pools, 15,000 to 27,000 gallons, about 1.0 ppm phosphate, 900 grams per cartridge
# Description: Sufficient sodium phosphate was broadcast to water in 7 full sized swimming pools, ranging in size from 15,000 to 27,000 gallons, to give a phosphate concentration of about 1.0 ppm (calculated as ortho-phosphate). The pools were allowed to mix for at least one hour. A Nature^2 G sized cartridge containing 900 grams of lanthanum chloride was connected to each pool water circulation system, and pumping through the cartridge was initiated, delivering lanthanum to the water. Water samples were taken at intervals and analyzed to determine turbidity, phosphate levels, and lanthanum levels, and in some cases, pH and total alkalinity. Six of the pools had surface cleaners in constant use and the remaining pool used a pool service. Each of the pools was filtered using a pleated cartridge filter. Turbidity of 6 of the 7 pools returned to starting levels (before lanthanum was added to precipitate out the phosphate) after 48 hours. A minimum of 90% of phosphate was removed from each of the pools.
# [4] = Phosphate removal and turbidity in 250 gallon mini-pool
# Protocol: A 250 gallon mini-pool was filled with tap water and balanced with calcium chloride, sodium bicarbonate, sodium bisulfate, and sodium hypochlorite. Sufficient sodium phosphate was added to the pool to give a phosphate concentration of approximately 1.0 ppm (calculated as ortho-phosphate). While mixing, lanthanum chloride was added to the water, where it combined with the phosphate and caused formation of a precipitate. The amount of lanthanum chloride added was sufficient to reduce phosphate concentration to less than 100 ppb. The water was allowed to mix (via stirring) for 15 minutes. […] Samples were taken at intervals during the study, and analyzed for turbidity, phosphate level, and lanthanum level, and in some cases, for pH and total alkalinity. […]
# A 250 gallon mini-pool was filled with tap water and balanced with calcium chloride, sodium bicarbonate, sodium bisulfate, and sodium hypochlorite. Sufficient sodium phosphate was added to the pool to give a phosphate concentration of approximately 1.0 ppm (calculated as ortho-phosphate). […] Samples were taken at intervals during the study, and analyzed for turbidity, phosphate level, and zinc level, and in some cases, for pH and total alkalinity. […]
compound,measurement,setting,value
[OH][Al]([OH])[OH] [Al(OH)3],log Ksp,[1]; metal hydroxides,−32.7
O=P([O-])([O-])[O-].[Al+3] [AlPO4],log Ksp,[1]; metal phosphates,−20.0
[Ce+3].[OH-].[OH-].[OH-] [Ce(OH)3],log Ksp,[1]; metal hydroxides,−22.3
[Ce+4].[OH-].[OH-].[OH-].[OH-] [Ce(OH)4],log Ksp,[1]; metal hydroxides,−47.7
O=P([O-])([O-])[O-].[Ce+3] [CePO4],log Ksp,[1]; metal phosphates,−26.2
O=P([O-])([O-])[O-].O=P([O-])([O-])[O-].[Cu+2].[Cu+2].[Cu+2] [Cu3(PO4)2],log Ksp,[1]; metal phosphates,−36.9
[Cu+2].[OH-].[OH-] [Cu(OH)2],log Ksp,[1]; metal hydroxides,−19.3
O=S(=O)([O-])[O-].[Cu+2] [CuSO4],Growth of Chlorella vulgaris (bottom pellicle formation),[2]; 0.25 ppm test compound,++
same,Growth of Chlorella vulgaris (bottom pellicle formation),[2]; 0.5 ppm test compound,++
same,Growth of Chlorella vulgaris (bottom pellicle formation),[2]; 1 ppm test compound,+
same,Growth of Chlorella vulgaris (bottom pellicle formation),[2]; 2 ppm test compound,−
same,Growth of Chlorella vulgaris (bottom pellicle formation),[2]; 4 ppm test compound,−
same,Growth of Chlorella vulgaris (bottom pellicle formation),[2]; 8 ppm test compound,−
same,Growth of Chlorella vulgaris (bottom pellicle formation),[2]; 16 ppm test compound,−
same,Growth of Chlorella vulgaris (bottom pellicle formation),[2]; 32 ppm test compound,−
same,Growth of Chlorella vulgaris (bottom pellicle formation),[2]; 64 ppm test compound,−
CCCCCCCCCCCCN.Cl [Dodecylamine HCl],Growth of Chlorella vulgaris (bottom pellicle formation),[2]; 0.25 ppm test compound,−
same,Growth of Chlorella vulgaris (bottom pellicle formation),[2]; 0.5 ppm test compound,−
same,Growth of Chlorella vulgaris (bottom pellicle formation),[2]; 1 ppm test compound,−
same,Growth of Chlorella vulgaris (bottom pellicle formation),[2]; 2 ppm test compound,−
same,Growth of Chlorella vulgaris (bottom pellicle formation),[2]; 4 ppm test compound,−
same,Growth of Chlorella vulgaris (bottom pellicle formation),[2]; 8 ppm test compound,−
same,Growth of Chlorella vulgaris (bottom pellicle formation),[2]; 16 ppm test compound,−
same,Growth of Chlorella vulgaris (bottom pellicle formation),[2]; 32 ppm test compound,−
same,Growth of Chlorella vulgaris (bottom pellicle formation),[2]; 64 ppm test compound,−
[La+3].[OH-].[OH-].[OH-] [La(OH)3],log Ksp,[1]; metal hydroxides,−18.5
O=P([O-])([O-])[O-].[La+3] [LaPO4],log Ksp,[1]; metal phosphates,−25.7
[OH][Sn][OH] [Sn(OH)2],log Ksp,[1]; metal hydroxides,−26.5
O=P([O-])([O-])[O-].O=P([O-])([O-])[O-].[Zn+2].[Zn+2].[Zn+2] [Zn3(PO4)2],log Ksp,[1]; metal phosphates,−35.3
[OH-].[OH-].[Zn+2] [Zn(OH)2],log Ksp,[1]; metal hydroxides,−16.5
[Cl][La]([Cl])[Cl] [lanthanum chloride],phosphate removed,[3],≥ 90%
same,Turbidity reduction,[4]; Example 5: within two hours of beginning filtration (diatomaceous earth),97%
[Cl-].[Cl-].[Zn+2] [zinc chloride],phosphate reduction,"[4]; Example 7: start approx. 1.0 ppm phosphate, within 3 hours, sand filtration",more than 90%
Zinc borate,Growth of Chlorella vulgaris (bottom pellicle formation),[2]; 0.25 ppm test compound,+
same,Growth of Chlorella vulgaris (bottom pellicle formation),[2]; 0.5 ppm test compound,+
same,Growth of Chlorella vulgaris (bottom pellicle formation),[2]; 1 ppm test compound,−
same,Growth of Chlorella vulgaris (bottom pellicle formation),[2]; 2 ppm test compound,−
same,Growth of Chlorella vulgaris (bottom pellicle formation),[2]; 4 ppm test compound,−
same,Growth of Chlorella vulgaris (bottom pellicle formation),[2]; 8 ppm test compound,−
same,Growth of Chlorella vulgaris (bottom pellicle formation),[2]; 16 ppm test compound,−
same,Growth of Chlorella vulgaris (bottom pellicle formation),[2]; 32 ppm test compound,−
same,Growth of Chlorella vulgaris (bottom pellicle formation),[2]; 64 ppm test compound,−
